Test results: patent US20240051985A1, “METTL3 MODULATORS” (ACCENT THERAPEUTICS, INC., priority 2020, published 2024)
pIC50: −log10 of the molar value.

Experiments:
PRMT5-MEP50 = PRMT5-MEP50 (Homo sapiens, UniProt O14744); experiment: PRMT5 assay (3H-SAM flashplate); settings: PRMT5 biochemical assay
Method: Assays were performed in a 25 μl-volume in 384-well V-bottom polypropylene microplates (Greiner Bio-One, cat. No. 781280) at ambient temperature. Optimized 1× assay buffer was 20 mM Tris-HCl pH 8.0, 1 mM DTT, […]. For compound screening PRMT5-MEP50 (final concentration, f.c.=2.5 nM) was added using a Multidrop Combi (ThermoFisher Scientific, Waltham, MA) and preincubated for 5 min. Reactions were started by adding 3′ biotinylated histone H4 peptide acetylated on serine 1 (Ac-[…]-Biotin) (f.c.=100 nM) and 3H-SAM (f.c.=250 nM) substrates. Reactions proceeded for 60 minutes and were quenched with excess non-radioactive SAM (f.c.=15 μM). The reactions were then transferred to streptavidin-coated flashplates and incubated for 2 hours at 25° C. Following two washing cycles with 0.1% Tween-20, the plates were sealed and read on a TopCount (PerkinElmer, Waltham, MA) plate-based scintillation counter. For determination of kinetic parameters, reaction times were optimized so that measurements were taken during the initial velocity phase of the reaction.

METTL3/METTL14 = METTL3/METTL14 (Homo sapiens, UniProt Q86U44); experiment: METTL3-14 standard enzyme assay (3H-SAM flashplate); settings: METTL3 biochemical assay
Sequence of METTL3/METTL14 (Q86U44 whole entry, species assumed): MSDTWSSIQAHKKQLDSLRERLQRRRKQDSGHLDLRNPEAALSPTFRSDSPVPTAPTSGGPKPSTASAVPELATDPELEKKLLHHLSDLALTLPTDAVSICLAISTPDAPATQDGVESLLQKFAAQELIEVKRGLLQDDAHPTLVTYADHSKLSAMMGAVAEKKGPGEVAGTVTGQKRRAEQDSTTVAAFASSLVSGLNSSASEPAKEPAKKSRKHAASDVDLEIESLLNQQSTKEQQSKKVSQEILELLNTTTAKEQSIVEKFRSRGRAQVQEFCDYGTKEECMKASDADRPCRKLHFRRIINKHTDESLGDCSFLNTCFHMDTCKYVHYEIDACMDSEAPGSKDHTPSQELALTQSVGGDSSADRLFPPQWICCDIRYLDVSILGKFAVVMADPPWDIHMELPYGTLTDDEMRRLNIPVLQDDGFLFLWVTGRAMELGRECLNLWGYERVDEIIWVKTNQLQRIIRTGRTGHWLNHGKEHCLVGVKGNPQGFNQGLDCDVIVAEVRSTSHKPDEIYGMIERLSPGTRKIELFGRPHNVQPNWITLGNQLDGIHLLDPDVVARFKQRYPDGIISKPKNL
Sequence of METTL3/METTL14 (Q9HCE5 whole entry partner, species assumed): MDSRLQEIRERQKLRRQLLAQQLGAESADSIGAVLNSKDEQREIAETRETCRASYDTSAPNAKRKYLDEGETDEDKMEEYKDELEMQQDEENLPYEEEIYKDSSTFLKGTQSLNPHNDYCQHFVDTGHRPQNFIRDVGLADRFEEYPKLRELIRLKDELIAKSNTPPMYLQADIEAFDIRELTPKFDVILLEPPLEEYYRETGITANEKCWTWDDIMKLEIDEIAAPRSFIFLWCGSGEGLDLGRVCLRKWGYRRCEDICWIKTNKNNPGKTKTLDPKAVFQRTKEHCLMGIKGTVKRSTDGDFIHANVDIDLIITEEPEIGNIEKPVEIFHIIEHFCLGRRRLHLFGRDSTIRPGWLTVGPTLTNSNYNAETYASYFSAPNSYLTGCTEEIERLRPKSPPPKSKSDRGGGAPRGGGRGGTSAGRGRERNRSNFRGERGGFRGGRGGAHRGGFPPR
Method: METTL3-14 Standard Enzyme Assay
Assays were performed in a 25 μl-volume in 384-well V-bottom polypropylene microplates (Greiner Bio-One, cat. No. 781280) at ambient temperature. Optimized 1× assay buffer was 20 mM HEPES pH 7.5, 50 mM KCl, 250 μM MgCl2, 1 mM DTT, 0.01% Tween, 0.01% BSG, 0.004 U/μl RNAseOUT (cat. No. 10777019, ThermoFisher Scientific, Waltham, MA). For compound screening METTL3/METTL14 (final concentration, f.c.=2.5 nM) was added using a Multidrop Combi (ThermoFisher Scientific, Waltham, MA) and preincubated for 5 min. Reactions were started by adding 3′ biotinylated RNA (UCUGGACUAAA-biotin) (f.c.=100 nM) and 3H-SAM (f.c.=100 nM) substrates. Reactions proceeded for 30 minutes and were quenched with excess non-radioactive SAM (f.c.=15 μM). The reactions were then transferred to streptavidin-coated flashplates and incubated for 2 hours at 25° C. Following two washing cycles with 0.1% Tween-20, the plates were sealed and read on a TopCount (PerkinElmer, Waltham, MA) plate-based scintillation counter. For determination of kinetic parameters, reaction times were optimized so that measurements were taken during the initial velocity phase of the reaction.

Sequence of PRMT5-MEP50 (O14744 whole entry): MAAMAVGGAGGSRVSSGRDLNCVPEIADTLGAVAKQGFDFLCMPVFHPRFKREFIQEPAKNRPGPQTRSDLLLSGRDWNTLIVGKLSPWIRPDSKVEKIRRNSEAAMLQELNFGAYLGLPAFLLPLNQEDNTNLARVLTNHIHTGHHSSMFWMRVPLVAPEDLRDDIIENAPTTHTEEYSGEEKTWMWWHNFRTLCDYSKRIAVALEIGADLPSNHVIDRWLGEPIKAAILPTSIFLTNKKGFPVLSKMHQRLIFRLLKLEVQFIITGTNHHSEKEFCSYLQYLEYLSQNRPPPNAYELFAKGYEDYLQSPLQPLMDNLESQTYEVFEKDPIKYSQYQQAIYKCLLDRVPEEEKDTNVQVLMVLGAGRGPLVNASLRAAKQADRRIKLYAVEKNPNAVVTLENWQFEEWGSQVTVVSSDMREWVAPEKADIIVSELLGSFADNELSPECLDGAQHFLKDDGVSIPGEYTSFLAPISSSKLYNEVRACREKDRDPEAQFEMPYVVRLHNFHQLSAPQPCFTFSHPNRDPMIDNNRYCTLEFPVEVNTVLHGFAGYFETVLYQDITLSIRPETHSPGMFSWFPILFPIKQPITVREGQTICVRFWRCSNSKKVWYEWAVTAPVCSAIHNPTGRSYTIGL
Sequence of PRMT5-MEP50 (Q9BQA1 whole entry partner): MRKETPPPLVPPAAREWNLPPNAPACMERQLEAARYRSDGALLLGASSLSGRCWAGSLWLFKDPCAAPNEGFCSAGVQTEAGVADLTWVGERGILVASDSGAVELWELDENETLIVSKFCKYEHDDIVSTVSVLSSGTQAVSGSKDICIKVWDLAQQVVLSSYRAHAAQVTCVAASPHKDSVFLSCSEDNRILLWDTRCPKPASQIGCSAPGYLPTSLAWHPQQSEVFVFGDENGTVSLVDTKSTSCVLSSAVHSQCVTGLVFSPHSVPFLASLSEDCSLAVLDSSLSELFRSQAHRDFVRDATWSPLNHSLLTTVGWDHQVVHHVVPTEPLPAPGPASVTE

pIC50 (PRMT5-MEP50; Table 4) | pIC50 (METTL3/METTL14; Table 4) | pIC50 (PRMT5-MEP50; Table 3) | pIC50 (METTL3/METTL14; Table 3) | Structure (SMILES)
6.00 to 7.00 | 6.00 to 7.00 | – | – | Cn1ccc(-c2cn([C@@H]3O[C@H](C(=O)NC4CCn5ccnc5C4)[C@@H](O)[C@H]3O)c3ncnc(N)c23)n1 (stereo partly shown) [Compound I-207]
– | – | 7.00 to 8.00 | 6.00 to 7.00 | Cn1ccc(-c2cn([C@@H]3O[C@H](C(=O)NCC4CCN(CCO)CC4)[C@@H](O)[C@H]3O)c3ncnc(N)c23)n1 [Compound I-19]
– | – | ≤ 6.00 | 6.00 to 7.00 | Cn1ccc(-c2cn([C@@H]3O[C@H](C(=O)NCc4ccccc4)[C@@H](O)[C@H]3O)c3ncnc(N)c23)n1 [Compound I-26]
– | – | 7.00 to 8.00 | 6.00 to 7.00 | Cn1ccc(-c2cn([C@@H]3O[C@H](C(=O)NCC4CCNCC4)[C@@H](O)[C@H]3O)c3ncnc(N)c23)n1 [Compound I-2]
7.00 to 8.00 | 6.00 to 7.00 | – | – | CN1CC(NC(=O)[C@H]2O[C@@H](n3cc(-c4ccn(C)n4)c4c(N)ncnc43)[C@H](O)[C@@H]2O)C1 [Compound I-216]
– | – | 6.00 to 7.00 | 6.00 to 7.00 | Cn1ccc(-c2cn([C@@H]3O[C@H](C(=O)NCC4CCC(F)(F)CC4)[C@@H](O)[C@H]3O)c3ncnc(N)c23)n1 [Compound I-22]
≤ 6.00 | ≤ 6.00 | – | – | Cn1ccc(-c2cn([C@@H]3O[C@H](C(=O)N[C@H]4C[C@H](O)C4)[C@@H](O)[C@H]3O)c3ncnc(N)c23)n1 [Compound I-215]
– | – | 6.00 to 7.00 | ≤ 6.00 | Cn1ccc(-c2cn([C@@H]3O[C@H](C(=O)NCC4CCN(CC(F)F)CC4)[C@@H](O)[C@H]3O)c3ncnc(N)c23)n1 [Compound I-23]
6.00 to 7.00 | 6.00 to 7.00 | – | – | Cn1ccc(-c2cn([C@@H]3O[C@H](C(=O)NC4CCN(c5ccccc5)CC4)[C@@H](O)[C@H]3O)c3ncnc(N)c23)n1 [Compound I-221]
6.00 to 7.00 | 6.00 to 7.00 | – | – | Cn1ccc(-c2cn([C@@H]3O[C@H](C(=O)NC4CCC5(CC4)CNC5)[C@@H](O)[C@H]3O)c3ncnc(N)c23)n1 [Compound I-208]
– | – | ≤ 6.00 | ≤ 6.00 | Cn1ccc(-c2cn([C@@H]3O[C@H](C(=O)NC4CCNCC4)[C@@H](O)[C@H]3O)c3ncnc(N)c23)n1 [Compound I-1, (2S,3S,4R,5R)-5-[4-amino-5-(1-methyl-1H-pyrazol-3-yl)-7H-pyrrolo[2,3-d]pyrimidin-7-yl]-3,4-dihydroxy-N-(piperidin-4-yl)oxolane-2-carboxamide]
≤ 6.00 | ≤ 6.00 | – | – | Cn1ccc(-c2cn([C@@H]3O[C@H](C(=O)N[C@H]4C[C@@H](O)C4)[C@@H](O)[C@H]3O)c3ncnc(N)c23)n1 [Compound I-214]
≤ 6.00 | 6.00 to 7.00 | – | – | Cn1ccc(-c2cn([C@@H]3O[C@H](C(=O)NC4CCC4)[C@@H](O)[C@H]3O)c3ncnc(N)c23)n1 [Compound I-218]
≤ 6.00 | ≤ 6.00 | – | – | Cn1ccc(-c2cn([C@@H]3O[C@H](C(=O)NC4CCN(CCN)CC4)[C@@H](O)[C@H]3O)c3ncnc(N)c23)n1 [Compound I-41, (2S,3S,4R,5R)-5-[4-amino-5-(1-methyl-1H-pyrazol-3-yl)-7H-pyrrolo[2,3-d]pyrimidin-7-yl]-N-[1-(2-aminoethyl)piperidin-4-yl]-3,4-dihydroxyoxolane-2-carboxamide]
– | – | ≤ 6.00 | 6.00 to 7.00 | Cn1ccc(-c2cn([C@@H]3O[C@H](C(=O)NCC4CCOCC4)[C@@H](O)[C@H]3O)c3ncnc(N)c23)n1 [Compound I-21]
≤ 6.00 | ≤ 6.00 | – | – | Cn1ccc(-c2cn([C@@H]3O[C@H](C(=O)N4CCC[C@H](C(N)=O)C4)[C@@H](O)[C@H]3O)c3ncnc(N)c23)n1 [Compound I-200]
– | – | 7.00 to 8.00 | 6.00 to 7.00 | CN1CCC(CNC(=O)[C@H]2O[C@@H](n3cc(-c4ccn(C)n4)c4c(N)ncnc43)[C@H](O)[C@@H]2O)CC1 [Compound I-24]
– | – | ≤ 6.00 | ≤ 6.00 | COCCCN(C)C(=O)[C@H]1O[C@@H](n2cc(-c3ccn(C)n3)c3c(N)ncnc32)[C@H](O)[C@@H]1O [Compound I-5]
– | ≤ 6.00 | – | – | Cn1ccc(-c2cn([C@@H]3O[C@H](C(=O)NCCN4CCNC4=O)[C@@H](O)[C@H]3O)c3ncnc(N)c23)n1 [Compound I-64]
– | 6.00 to 7.00 | – | – | Cn1ccc(-c2cn([C@@H]3O[C@H](C(=O)NC4Cc5ccccc5C4)[C@@H](O)[C@H]3O)c3ncnc(N)c23)n1 [Compound I-126]

Further lines, the compound ahead of its results:

Structure (SMILES) | pIC50 (PRMT5-MEP50; Table 4) | pIC50 (METTL3/METTL14; Table 4) | pIC50 (PRMT5-MEP50; Table 3) | pIC50 (METTL3/METTL14; Table 3)
CCNc1ccnc(NC(=O)[C@H]2O[C@@H](n3cc(-n4cccn4)c4c(N)ncnc43)C[C@@H]2O)c1 [Compound I-29] | – | – | ≤ 6.00 | 6.00 to 7.00
CN1CCC(N(CCCC#N)C(=O)[C@H]2O[C@@H](n3cc(-c4ccn(C)n4)c4c(N)ncnc43)[C@H](O)[C@@H]2O)CC1 [Compound I-155] | 7.00 to 8.00 | 6.00 to 7.00 | – | –
COCCN(C(=O)[C@H]1O[C@@H](n2cc(-c3ccn(C)n3)c3c(N)ncnc32)[C@H](O)[C@@H]1O)c1ccc2ccc(N3CCC3)nc2c1 [Compound I-11] | – | – | 6.00 to 7.00 | 6.00 to 7.00
Nc1ncnc2c1c(-n1cccn1)cn2[C@H]1C[C@H](O)[C@@H](C(=O)Nc2ccc3ccc(N4CCC4)nc3c2)O1 [Compound I-13] | – | – | ≤ 6.00 | > 8.00
Cn1ccc(-c2cn([C@@H]3O[C@H](C(=O)N(CC[C@H](N)C(=O)O)c4ccc5nc(N)[nH]c5c4)[C@@H](O)[C@H]3O)c3ncnc(N)c23)n1 [Compound I-39, (2S)-2-amino-4-[N-(2-amino-1H-1,3-benzodiazol-6-yl)-1-[(2S,3S,4R,5R)-5-[4-amino-5-(1-methyl-1H-pyrazol-3-yl)-7H-pyrrolo[2,3-d]pyrimidin-7-yl]-3,4-dihydroxyoxolan-2-yl]formamido]butanoic acid] | ≤ 6.00 | 6.00 to 7.00 | – | –
CN(C)CCCN(C(=O)[C@H]1O[C@@H](n2cc(-c3ccn(C)n3)c3c(N)ncnc32)[C@H](O)[C@@H]1O)C1CCN(C)CC1 [Compound I-51, (2S,3S,4R,5R)-5-[4-amino-5-(1-methyl-1H-pyrazol-3-yl)-7H-pyrrolo[2,3-d]pyrimidin-7-yl]-N-[3-(dimethylamino)propyl]-3,4-dihydroxy-N-(1-methylpiperidin-4-yl)oxolane-2-carboxamide] | 6.00 to 7.00 | 6.00 to 7.00 | – | –
Cn1ccc(-c2cn([C@@H]3O[C@H](C(=O)NC4CCN(C(=O)OCc5ccccc5)CC4)[C@@H](O)[C@H]3O)c3ncnc(N)c23)n1 [Compound I-225] | 6.00 to 7.00 | 6.00 to 7.00 | – | –
CN1CCC(N(CCCNc2ccccn2)C(=O)[C@H]2O[C@@H](n3cc(-c4ccn(C)n4)c4c(N)ncnc43)[C@H](O)[C@@H]2O)CC1 [Compound I-153] | 7.00 to 8.00 | ≤ 6.00 | – | –
CN1CCC(N(CCCc2nn[nH]n2)C(=O)[C@H]2O[C@@H](n3cc(-c4ccn(C)n4)c4c(N)ncnc43)[C@H](O)[C@@H]2O)CC1 [Compound I-48] | 7.00 to 8.00 | ≤ 6.00 | – | –
C#CCCCN(C(=O)[C@H]1O[C@@H](n2cc(-c3ccn(C)n3)c3c(N)ncnc32)[C@H](O)[C@@H]1O)C1CCN(C)CC1 [Compound I-59, (2S,3S,4R,5R)-5-(4-amino-5-(1-methyl-1H-pyrazol-3-yl)-7H-pyrrolo[2,3-d]pyrimidin-7-yl)-3,4-dihydroxy-N-(1-methylpiperidin-4-yl)-N-(pent-4-yn-1-yl)tetrahydrofuran-2-carboxamide] | > 8.00 | 6.00 to 7.00 | – | –
Cn1ccc(-c2cn([C@@H]3O[C@H](C(=O)N(CC[C@H](N)C(=O)O)C4CCNCC4)[C@@H](O)[C@H]3O)c3ncnc(N)c23)n1 [Compound I-9] | – | – | ≤ 6.00 | 6.00 to 7.00
CC(=O)NCCCN(C(=O)[C@H]1O[C@@H](n2cc(-c3ccn(C)n3)c3c(N)ncnc32)[C@H](O)[C@@H]1O)C1CCN(C)CC1 [Compound I-235] | 6.00 to 7.00 | ≤ 6.00 | – | –
Nc1ccnc(NC(=O)[C@H]2O[C@@H](n3cc(-n4cccn4)c4c(N)ncnc43)C[C@@H]2O)c1 [Compound I-18] | – | – | ≤ 6.00 | 7.00 to 8.00
CN1CCC(NC(=O)[C@H]2O[C@@H](n3ccc4c(N)ncnc43)[C@H](O)[C@@H]2O)CC1 [Compound I-27] | – | – | 6.00 to 7.00 | ≤ 6.00
CN1CCC(N(CCCc2cnoc2)C(=O)[C@H]2O[C@@H](n3cc(-c4ccn(C)n4)c4c(N)ncnc43)[C@H](O)[C@@H]2O)CC1 [Compound I-152] | 6.00 to 7.00 | 6.00 to 7.00 | – | –
Cc1cc(F)ccc1NC(=O)[C@H]1O[C@@H](n2cc(-c3ccn(C)n3)c3c(N)ncnc32)[C@H](O)[C@@H]1O [Compound I-117] | – | 6.00 to 7.00 | – | –
Cn1ccc(-c2cn([C@@H]3O[C@H](C(=O)Nc4ccc5c(c4)NC(=O)CC5)[C@@H](O)[C@H]3O)c3ncnc(N)c23)n1 [Compound I-123] | – | 6.00 to 7.00 | – | –
